Test results from ChEMBL document CHEMBL1201862, “PubChem BioAssay data set” (2004).
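Method: 48-hour compound exposure of cells in 96-well plates, five concentrations, linear interpolation of endpoints. Here, GI50 denotes the concentration required for 50% inhibition of growth.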 Calls of active or inactive are those of the source. Rule as the data show it: active = GI50 up to about 1.1 µM and inactive = higher.

Tests used:
Assay in all cases: NCI tumour cell line growth inhibition, 48 h
786-0 = test system: 786-0
A498 = test system: A498
A549 = test system: A549
ACHN = test system: ACHN
CAKI-1 = test system: CAKI-1
CCRF-CEM = test system: CCRF-CEM
COLO 205 = test system: COLO 205
DLD-1 = test system: DLD-1
DMS-114 = test system: DMS-114
DMS-273 = test system: DMS-273
EKVX = test system: EKVX
HCC 2998 = test system: HCC 2998
HCT-116 = test system: HCT-116
HCT-15 = test system: HCT-15
HL-60 = test system: HL-60
HOP-18 = test system: HOP-18
HOP-62 = test system: HOP-62
HT-29 = test system: HT-29
IGROV-1 = test system: IGROV-1
K562 = test system: K562
KM-20L2 = test system: KM-20L2
KM12 = test system: KM12
LOX IMVI = test system: LOX IMVI
LXFL 529 = test system: LXFL 529
M14 = test system: M14
M19-MEL = test system: M19-MEL
MOLT-4 = test system: MOLT-4
Malme-3M = test system: Malme-3M
NCI-H226 = test system: NCI-H226
NCI-H23 = test system: NCI-H23
NCI-H460 = test system: NCI-H460
NCI-H522 = test system: NCI-H522
OVCAR-3 = test system: OVCAR-3
OVCAR-4 = test system: OVCAR-4
OVCAR-5 = test system: OVCAR-5
OVCAR-8 = test system: OVCAR-8
RPMI-8226 = test system: RPMI-8226
RXF 393 = test system: RXF 393
RXF 631 = test system: RXF 631
SF-268 = test system: SF-268
SF-295 = test system: SF-295
SF-539 = test system: SF-539
SK-MEL-28 = test system: SK-MEL-28
SK-MEL-2 = test system: SK-MEL-2
SK-MEL-5 = test system: SK-MEL-5
SK-OV-3 = test system: SK-OV-3
SN12C = test system: SN12C
SNB-19 = test system: SNB-19
SNB-75 = test system: SNB-75
SNB-78 = test system: SNB-78
SR = test system: SR
TK-10 = test system: TK-10
U-251 = test system: U-251
UACC-257 = test system: UACC-257
UACC-62 = test system: UACC-62
UO-31 = test system: UO-31
XF498 = test system: XF498
HOP-92 = test system: HOP-92
SW-620 = test system: SW-620

## N#CC12CCC(O)C(CC1)C2=O (stereo not given)
786-0
  GI50: > 100 µM (inactive)
A498
  GI50: > 100 µM (inactive)
A549
  GI50: > 100 µM (inactive)
ACHN
  GI50: > 100 µM (inactive)
CAKI-1
  GI50: > 100 µM (inactive)
CCRF-CEM
  GI50: > 100 µM (inactive)
COLO 205
  GI50: 87.9 µM (inactive)
DLD-1
  GI50: 47.3 µM (inactive)
DMS-114
  GI50: 19.4 µM (inactive)
DMS-273
  GI50: 96.8 µM (inactive)
EKVX
  GI50: > 100 µM (inactive)
HCC 2998
  GI50: > 100 µM (inactive)
HCT-116
  GI50: 73.1 µM (inactive)
HCT-15
  GI50: > 100 µM
HL-60
  GI50: > 100 µM (inactive)
HOP-18
  GI50: > 100 µM (inactive)
HOP-62
  GI50: > 100 µM (inactive)
HT-29
  GI50: > 100 µM (inactive)
IGROV-1
  GI50: > 100 µM (inactive)
K562
  GI50: > 100 µM (inactive)
KM-20L2
  GI50: > 100 µM (inactive)
KM12
  GI50: > 100 µM (inactive)
LOX IMVI
  GI50: 21.5 µM (inactive)
LXFL 529
  GI50: > 10 µM (inactive)
M14
  GI50: > 100 µM (inactive)
M19-MEL
  GI50: > 100 µM (inactive)
MOLT-4
  GI50: > 100 µM (inactive)
Malme-3M
  GI50: > 100 µM (inactive)
NCI-H226
  GI50: > 100 µM (inactive)
NCI-H23
  GI50: > 100 µM (inactive)
NCI-H460
  GI50: 70 µM (inactive)
NCI-H522
  GI50: > 100 µM (inactive)
OVCAR-3
  GI50: > 100 µM (inactive)
OVCAR-4
  GI50: > 100 µM (inactive)
OVCAR-5
  GI50: > 100 µM (inactive)
OVCAR-8
  GI50: > 100 µM (inactive)
RPMI-8226
  GI50: 26.9 µM (inactive)
RXF 393
  GI50: > 100 µM (inactive)
RXF 631
  GI50: > 100 µM (inactive)
SF-268
  GI50: > 100 µM (inactive)
SF-295
  GI50: > 100 µM (inactive)
SF-539
  GI50: > 100 µM (inactive)
SK-MEL-28
  GI50: > 100 µM (inactive)
SK-MEL-2
  GI50: > 100 µM (inactive)
SK-MEL-5
  GI50: > 100 µM (inactive)
SK-OV-3
  GI50: > 100 µM (inactive)
SN12C
  GI50: > 100 µM (inactive)
SNB-19
  GI50: > 100 µM (inactive)
SNB-75
  GI50: > 100 µM (inactive)
SNB-78
  GI50: > 100 µM (inactive)
SR
  GI50: 27.3 µM (inactive)
TK-10
  GI50: > 100 µM (inactive)
U-251
  GI50: > 100 µM (inactive)
UACC-257
  GI50: > 100 µM (inactive)
UACC-62
  GI50: > 100 µM (inactive)
UO-31
  GI50: > 100 µM (inactive)
XF498
  GI50: > 100 µM (inactive)

## CCOCc1cc(=O)c2cc3c(cc2o1)OC(C)(C)CC3
786-0
  GI50: > 100 µM (inactive)
A498
  GI50: > 100 µM (inactive)
A549
  GI50: > 100 µM (inactive)
ACHN
  GI50: > 100 µM (inactive)
CAKI-1
  GI50: > 100 µM (inactive)
CCRF-CEM
  GI50: > 100 µM (inactive)
COLO 205
  GI50: > 100 µM (inactive)
DLD-1
  GI50: > 100 µM (inactive)
DMS-114
  GI50: 62.7 µM (inactive)
DMS-273
  GI50: 48.5 µM (inactive)
EKVX
  GI50: > 100 µM (inactive)
HCC 2998
  GI50: > 100 µM (inactive)
HCT-116
  GI50: > 100 µM (inactive)
HCT-15
  GI50: > 100 µM
HL-60
  GI50: 61.2 µM (inactive)
HOP-18
  GI50: > 100 µM (inactive)
HOP-62
  GI50: > 100 µM (inactive)
HOP-92
  GI50: 45.7 µM (inactive)
HT-29
  GI50: > 100 µM (inactive)
IGROV-1
  GI50: > 100 µM (inactive)
K562
  GI50: 97.5 µM (inactive)
KM-20L2
  GI50: > 100 µM (inactive)
KM12
  GI50: > 100 µM (inactive)
LOX IMVI
  GI50: > 100 µM (inactive)
LXFL 529
  GI50: 92.7 µM (inactive)
M14
  GI50: > 100 µM (inactive)
M19-MEL
  GI50: > 100 µM (inactive)
MOLT-4
  GI50: 55.5 µM (inactive)
Malme-3M
  GI50: > 100 µM (inactive)
NCI-H226
  GI50: > 100 µM (inactive)
NCI-H23
  GI50: > 100 µM (inactive)
NCI-H460
  GI50: > 100 µM (inactive)
NCI-H522
  GI50: > 100 µM (inactive)
OVCAR-3
  GI50: > 100 µM (inactive)
OVCAR-4
  GI50: > 100 µM (inactive)
OVCAR-5
  GI50: > 100 µM (inactive)
OVCAR-8
  GI50: > 100 µM (inactive)
RPMI-8226
  GI50: 91.4 µM (inactive)
RXF 393
  GI50: > 100 µM (inactive)
RXF 631
  GI50: > 100 µM (inactive)
SF-268
  GI50: > 100 µM (inactive)
SF-295
  GI50: 93.8 µM (inactive)
SF-539
  GI50: > 100 µM (inactive)
SK-MEL-2
  GI50: > 100 µM (inactive)
SK-MEL-5
  GI50: 56.6 µM (inactive)
SK-OV-3
  GI50: > 100 µM (inactive)
SN12C
  GI50: > 100 µM (inactive)
SNB-19
  GI50: > 100 µM (inactive)
SNB-75
  GI50: > 100 µM (inactive)
SNB-78
  GI50: > 100 µM (inactive)
SR
  GI50: 72.3 µM (inactive)
SW-620
  GI50: > 100 µM (inactive)
TK-10
  GI50: > 100 µM (inactive)
U-251
  GI50: > 100 µM (inactive)
UACC-257
  GI50: 65.3 µM (inactive)
UACC-62
  GI50: > 100 µM (inactive)
UO-31
  GI50: 92.9 µM (inactive)
XF498
  GI50: > 100 µM (inactive)
